Results on nine molecules are retold here after US11667643B2, “RIP1K inhibitors” (priority 2020, dated 2023).

pIC50: −log10 of the molar value. Like-named read-outs stand apart in the source and are kept apart here.

One assay deals with RIPK1 (Homo sapiens (Human), UniProt Q13546). As to the kind of experiment: biochemical. Type of assay: biochemical. Summed up:
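ADP-Glo luminescent assay of RIPK1 at 31 ng/well in Tris-HCl pH 7.4 buffer with MgCl2, BSA, 100 μM DTT and 4 mM MnCl2; compounds run in duplicate. Kinase reaction 30 min at 30 °C, then ADP-Glo 40 min and detection reagent 30 min at room temperature; ADP formation read as luminescence.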

A further assay deals with U937 cells. As to the kind of experiment: U937 cell necroptosis assay (TNFa + zVAD, CellTiter-Glo recovery), functional human RIP1 assay. As to conditions: Homo sapiens, U-937, 18 h, read-out: U937 Zvad TNF CTG Recovery, U937, TNFa + zVAD (IC50), U937 cells, zVAD-fmk, TNFa 2 ng/mL, 18 hours, CellTiter-Glo. Type of assay: cell-based. Summed up:
(§1)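 Human U937 cells (50K/well, 60 uM zVAD-fmk in plating medium) and murine L929 cells (10K/well, medium replaced with 40 uM zVAD-fmk) were pre-incubated with compound 1 h at 37 °C. TNFa was then added at a final 2 ng/mL. Viability by CellTiter-Glo luminescence after 18 h.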
A general note: ATP-based viability assays read luminescence as a measure of living cells.

Another assay relates to L929 cells. As to the kind of experiment: L929 cell necroptosis assay (TNFa + zVAD, CellTiter-Glo recovery), functional murine RIP1 assay. Type of assay: cell-based. The note with it: Mus musculus, L929, 18 h, read-out: L929-CTG-recovery, L929, TNFa + zVAD (IC50), L929 cells, zVAD-fmk, TNFa 2 ng/mL, 18 hours, CellTiter-Glo. Summed up: as §1
The mark [1] stands for this setting: RIPK1 enzyme 31 ng/well, 30° C. for 30 minutes, luminescence, read-out: RIPK1 ADP-Glo Kinase (IC50).

Sequence of RIPK1 (Q13546 whole entry, species assumed): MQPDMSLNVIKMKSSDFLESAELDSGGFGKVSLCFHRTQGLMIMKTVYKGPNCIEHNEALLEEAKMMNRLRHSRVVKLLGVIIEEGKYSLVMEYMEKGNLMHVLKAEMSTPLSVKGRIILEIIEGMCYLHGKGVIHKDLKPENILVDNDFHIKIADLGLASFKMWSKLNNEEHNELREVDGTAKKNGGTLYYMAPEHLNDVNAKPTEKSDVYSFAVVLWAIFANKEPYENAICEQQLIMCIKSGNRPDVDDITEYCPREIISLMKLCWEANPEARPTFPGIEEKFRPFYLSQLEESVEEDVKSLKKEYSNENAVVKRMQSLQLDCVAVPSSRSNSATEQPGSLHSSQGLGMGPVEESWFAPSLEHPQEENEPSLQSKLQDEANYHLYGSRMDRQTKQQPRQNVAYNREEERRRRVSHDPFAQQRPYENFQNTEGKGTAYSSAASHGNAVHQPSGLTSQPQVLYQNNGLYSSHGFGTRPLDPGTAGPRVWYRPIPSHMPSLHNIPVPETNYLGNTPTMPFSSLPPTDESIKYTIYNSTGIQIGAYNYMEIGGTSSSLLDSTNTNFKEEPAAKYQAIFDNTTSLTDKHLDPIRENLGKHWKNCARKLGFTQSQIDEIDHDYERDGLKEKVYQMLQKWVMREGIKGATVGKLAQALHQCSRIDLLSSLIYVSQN

For `O=C(N[C@H]1COc2ccccc2-n2c1noc2=O)c1cc(O)n(Cc2ccccc2)n1` [Compound I-75, 1-Benzyl-5-hydroxy-N-((4R)-1-oxo-4,5-dihydro-1H-benzo[b][1,2,4]oxadiazolo[4,3-d][1,4]oxazepin-4-yl)-1H-pyrazole-3-carboxamide], the pIC50 on RIPK1 (setting [1]) is 4.98; in the assay with U937 cells it was 2.00; with L929 cells it was 2.00.

For the molecule `CC(C)(O)C#Cc1ccc2c(c1)-n1cnnc1C(NC(=O)c1n[nH]c(Cc3ccccc3)n1)CC2` (racemic) [Compound I-72, (±)-5-Benzyl-N-(9-(3-hydroxy-3-methylbut-1-yn-1-yl)-5,6-dihydro-4H-benzo[f][1,2,4]triazolo[4,3-a]azepin-4-yl)-1H-1,2,4-triazole-3-carboxamide], the pIC50 on RIPK1 (setting [1]) is 6.66; with U937 cells, 6.15; with L929 cells it was 2.00.

With `O=C(N[C@H]1COc2ccccc2-n2c1noc2=O)c1n[nH]c(Cc2ccccc2)n1` [Compound I-41, 5-Benzyl-N-((4R)-1-oxo-4,5-dihydro-1H-benzo[6][1,2,4]oxadiazolo[4,3-d][1,4]oxazepin-4-yl)-1H-1,2,4-triazole-3-carboxamide], the pIC50 at RIPK1 (setting [1]) is 7.24; in the assay on U937 cells, 7.32; with L929 cells it was 2.00.

On to `O=C(NC1COc2ccccc2-n2cccc21)c1ncn(Cc2c(Cl)cccc2Cl)n1` (racemic) [Compound I-27, (±)-1-(2,6-Dichlorobenzyl)-N-(6,7-dihydrobenzo[b]pyrrolo[1,2-d][1,4]oxazepin-7-yl)-1H-1,2,4-triazole-3-carboxamide], for which the pIC50 at RIPK1 (setting [1]) was 7.16; in the assay with U937 cells it was 7.47; with L929 cells, 5.26.

For the molecule `O=C(NC1CCc2ccccc2-n2ccnc21)c1cc(Cc2ccccc2)on1` (racemic) [Compound I-9, (±)-5-Benzyl-N-(5,6-dihydro-4H-benzo[f]imidazo[1,2-a]azepin-4-yl)isoxazole-3-carboxamide], the values for the pIC50 at RIPK1 (setting [1]), in the assay on U937 cells and in the assay with L929 cells were 7.58, 6.65 and 2.00, respectively.

As to `O=C(N[C@H]1COc2ccccc2-n2nnnc21)c1ncn(Cc2ccccc2F)n1` [Compound I-21, (R)—N-(4,5-Dihydrobenzo[b]tetrazolo[1,5-d][1,4]oxazepin-4-yl)-1-(2-fluorobenzyl)-1H-1,2,4-triazole-3-carboxamide], the pIC50 is 7.25 on RIPK1 (setting [1]), 7.20 in the assay on U937 cells and 3.80 with L929 cells.

`O=C(N[C@H]1CCc2ccc(N3CC4(CCOCC4)C3)cc2-n2ccnc21)c1n[nH]c(Cc2ccccc2)n1` [Compound I-86, (S)—N-(9-(7-Oxa-2-azaspiro[3.5]nonan-2-yl)-5,6-dihydro-4H-benzo[f]imidazo[1,2-a]azepin-4-yl)-5-benzyl-1H-1,2,4-triazole-3-carboxamide]: the figures for the pIC50 on RIPK1 (setting [1]), in the assay with U937 cells and in the assay on L929 cells were 7.17, 7.92 and 5.46, respectively.

Regarding `CC(C)(O)C#Cc1ccc2c(c1)-n1ccnc1C(NC(=O)c1cc(Oc3ccccc3)ccn1)CC2` (racemic) [Compound I-56, (±)-N-(9-(3-Hydroxy-3-methylbut-1-yn-1-yl)-5,6-dihydro-477-benzo[f]imidazo[1,2-a]azepin-4-yl)-4-phenoxypicolinamide], the results for the pIC50 on RIPK1 (setting [1]), in the assay with U937 cells and in the assay with L929 cells were 7.25, 7.46 and 5.29, respectively.

On to `O=C(NC1CSc2cccn2-n2ccnc21)c1ncn(Cc2c(Cl)cccc2Cl)n1` (racemic) [Compound I-29, (±)-1-(2,6-Dichlorobenzyl)-N-(4,5-dihydroimidazo[1,2-d]pyrrolo[2,1-b][1,3,4]thiadiazepin-4-yl)-1H-1,2,4-triazole-3-carboxamide], for which the pIC50 against RIPK1 is 8.01; in the assay on U937 cells, 8.96; in the assay with L929 cells, 6.71.
